Data as given in patent US10183913B2, “Pyrazole compound” (Sumitomo Dainippon Pharma Co., Ltd., priority 2010, dated 2019).
Structures can show the parent of a compound that is named as a salt. Where two headings read alike, the source gives them in different places.

Assays:
[1] = target: human serotonin transporter (h-SERT) (Homo sapiens (Human), UniProt P31645); test: [3H] citalopram binding assay to evaluate human serotonin reuptake inhibitory action (h-SERT binding assay)
Protocol: Citalopram Binding Assay to Evaluate Human Serotonin Reuptake Inhibitory Action
(§1) Preparation of the Cells and Membrane Preparations
In the experiment, human serotonin transporter (h-SERT) was expressed in CHO cells (h-SERT/CHO). The cells were incubated with F12 containing 10% FCS, 500 μg/mL Geneticin and 100 U/mL penicillin—100 μg/mL streptmycin (all manufactured by Sigma Aldrich) in an incubator containing 5% CO2; detached and collected using a SERT buffer [50 mmol/L Tris-HCl comprising 120 mmol/L NaCl and 5 mmol/L KCl (pH=7.4)]; homogenized with a homogenizer manufactured by Teflon (trademark); and then centrifuged (50,000×g, 30 min, 4° C.). The precipitate was suspended again in the appropriate amount of SERT buffer (to give a membrane preparation), and stored at −80° C. until used. The amount of protein in the membrane preparation was assayed by Dye Reagent Concentrate (manufactured by BIO-RAD) using bovine serum albumin (manufactured by Sigma Aldrich) as a standard.
1-2. h-SERT Binding Assay
The [^3H] citalopram binding was measured according to the method disclosed in Owens M. J. et al., J. Pharm. […] The solution was reacted at room temperature for 60 minutes, and then quickly suction-filtered under reduced pressure through a glass fiber filter coated with 0.05% aq. polyethyleneimine. The glass fiber filter was washed twice with […] of the SERT buffer, placed in a plastic vial containing 4 mL of liquid scintillator (ACS-II, manufactured by Amersham) or Ecoscint A (manufactured by National Diagnostics), and the remaining radioactivity on the filter paper was assayed with a liquid scintillation counter.

[2] = target: human serotonin 2C receptor (h-5-HT2C) (Homo sapiens (Human), UniProt P28335); test: [3H] mesulergine binding assay to evaluate affinity for human 5-HT2C receptor; settings: h-5-HT2C/CHO membrane preparation, read-out: Test Ex. 2: 5-HT2C receptor binding inhibition constant Ki
Chain of human serotonin 2C receptor (h-5-HT2C) (P28335 whole entry, looked up): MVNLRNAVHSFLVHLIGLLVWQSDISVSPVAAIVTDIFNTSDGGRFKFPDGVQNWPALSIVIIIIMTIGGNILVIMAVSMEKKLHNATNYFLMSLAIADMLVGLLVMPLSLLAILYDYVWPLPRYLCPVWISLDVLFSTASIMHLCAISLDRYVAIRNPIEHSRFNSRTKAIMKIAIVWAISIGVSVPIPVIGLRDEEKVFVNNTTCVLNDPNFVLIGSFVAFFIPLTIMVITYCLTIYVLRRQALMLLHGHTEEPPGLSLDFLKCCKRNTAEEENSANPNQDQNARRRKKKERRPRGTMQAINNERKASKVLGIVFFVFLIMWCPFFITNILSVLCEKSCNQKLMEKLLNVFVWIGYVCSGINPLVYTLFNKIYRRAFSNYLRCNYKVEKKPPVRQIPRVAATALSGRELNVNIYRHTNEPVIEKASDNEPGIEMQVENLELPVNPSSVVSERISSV
Protocol: Mesulergine Binding Assay to Evaluate Affinity for Human 5-HT2C Receptor
as §1
In the experiment, human serotonin 2C receptor (h-5-HT2C) was expressed in CHO cells (h-5-HT2C/CHO). The cells were incubated with UltraCHO Lipuid (trademark) (manufactured by BioWhitakker) containing 1% FBS, 400 μg/mL Geneticin, 100 U/mL penicillin—100 μg/mL streptomycin (all manufactured by Sigma Aldrich) and 250 μg/mL Zeosin (manufactured by InvivoGen) in an incubator containing 5% CO2; detached and collected using 50 mmol/L Tris-HCl (pH=7.4); homogenized with a homogenizer manufactured by Teflon (trademark); and then centrifuged (48,000×g, 25 min, 4° C.). The precipitate was suspended again in the appropriate amount of 50 mmol/L Tris-HCl (to give a membrane preparation), and stored at −80° C. until used. The amount of protein in the membrane preparation was assayed by Dye Reagent Concentrate (manufactured by BIO-RAD) using bovine serum albumin (manufactured by Sigma Aldrich) as a standard.
2-2. 5-HT2C Receptor Binding Assay
A solution of 200 μL in total was prepared by mixing 50 μL of [^3H] mesulergine (manufactured by GE Healthcare) diluted with 50 mmol/L Tris-HCl (pH=7.4) (final concentration: about 2 nmol/L), 149 μL of the h-5-HT2C/CHO membrane preparation (protein amount: 20 μg/well), and 1 μL of the test drug dissolved in dimethylsulfoxide. The solution was reacted at 37° C. for 30 minutes, and then quickly suction-filtered under reduced pressure through a glass fiber filter coated with 1% aq. bovine serum albumin. The glass fiber filter was washed twice with 250 μL of 50 mmol/L Tris-HCl (pH=7.4), placed in a plastic vial containing 4 mL of liquid scintillator (ACS-II, manufactured by Amersham) or Ecoscint A (manufactured by National Diagnostics), and the remaining radioactivity on the filter paper was assayed with a liquid scintillation counter. The non-specific binding of [^3H] mesulergine was defined as a binding amount in the presence of 10 μmol/L SB206553 (manufactured by Sigma Aldrich). The IC50 value was calculated according to Hill analysis, and the binding inhibition constant (Ki) was calculated according to the following formula: Binding inhibition constant (Ki)=IC50/(1+S/Kd) wherein S is a concentration of the added [^3H] mesulergine, and Kd is a binding dissociation constant of [^3H] mesulergine which was calculated from a saturated binding assay using the same cell membrane.

[3] = [3H] citalopram binding, read-out: Test Ex. 1: h-SERT binding inhibition constant Ki

CNCc1cc(OCc2cc(F)c(F)cc2F)n(CCC(C)(C)C)n1 [Example 284, 1-{1-(3,3-dimethylbutyl)-5-[(2,4,5-trifluorobenzyl)-oxy]-1H-pyrazol-3-yl}-N-methylmethanamine]
Ki [1, 3]: 5.7 nM
Ki [2]: 7.9 nM

CNCc1cc(OCc2cc(F)ccc2F)n(CC2CCCC2)n1 [Example 147, 1-{1-(cyclopentylmethyl)-5-[(2,5-difluorobenzyl)oxy]-1H-pyrazol-3-yl}-N-methylmethanamine]
Ki [1, 3]: 0.71 nM
Ki [2]: 4.8 nM

CNCc1cc(OCc2ccc(F)cc2C)n(CC2CCCCC2)n1 [Example 31, 1-{1-(Cyclohexylmethyl)-5-[(4-fluoro-2-methylbenzyl)oxy]-1H-pyrazol-3-yl}-N-methylmethanamine]
Ki [1, 3]: 0.92 nM
Ki [2]: 5.2 nM

CNCc1cc(OCc2cc(F)ccc2F)n(Cc2ccc(C)cc2)n1 [Example 230, 1-{5-[(2,5-difluorobenzyl)oxy]-1-(4-methylbenzyl)-1H-pyrazol-3-yl}-N-methylmethanamine]
Ki [1, 3]: 2.3 nM
Ki [2]: 4.9 nM

CNCc1cc(OCc2cc(F)c(F)cc2F)n(CC2CCCC2)n1 [Example 280, 1-{1-(cyclopentylmethyl)-5-[(2,4,5-trifluorobenzyl)-oxy]-1H-pyrazol-3-yl}-N-methylmethanamine]
Ki [1, 3]: 1.9 nM
Ki [2]: 9.7 nM

CNCc1cc(OCc2ccccc2)n(Cc2ccccc2)n1 [Example 1, 1-[1-Benzyl-5-(benzyloxy)-1H-pyrazol-3-yl]-N-methylmethanamine hydrochloride]
Ki [1, 3]: 4.9 nM
Ki [2]: 26 nM

CNCc1cc(OCc2ccc(F)cc2)n(CC2(C(F)(F)F)CCCC2)n1 [Example 446, 1-(5-[(4-fluorobenzyl)oxy]-1-{[1-(trifluoromethyl)-cyclopentyl]methyl}-1H-pyrazol-3-yl)-N-methylmethanamine]
Ki [1, 3]: 7.4 nM
Ki [2]: 19 nM

CNCc1cc(OCc2ccc(F)cc2)n(CC2CCCC2)n1 [Example 137, 1-{1-(cyclopentylmethyl)-5-[(4-fluorobenzyl)oxy]-1H-pyrazol-3-yl}-N-methylmethanamine]
Ki [1, 3]: 6.6 nM
Ki [2]: 7.9 nM

CNCc1cc(OCc2cc(Cl)ccc2F)n(CC2(C(F)(F)F)CCCC2)n1 [Example 448, 1-(5-[(5-chloro-2-fluorobenzyl)oxy]-1-{[1-(trifluoro-methyl)cyclopentyl]methyl}-1H-pyrazol-3-yl)-N-methylmethanamine]
Ki [1, 3]: 3.8 nM
Ki [2]: 8.8 nM

CNCc1cc(OCc2cc(F)ccc2F)n(Cc2ccc(F)cc2)n1 [Example 219, 1-{5-[(2,5-difluorobenzyl)oxy]-1-(4-fluorobenzyl)-1H-pyrazol-3-yl}-N-methylmethanamine]
Ki [1, 3]: 1.6 nM
Ki [2]: 10 nM

CNCc1cc(OCc2cc(F)c(F)cc2F)n(Cc2ccc(C)cc2)n1 [Example 286, N-methyl-1-{1-(4-methylbenzyl)-5-[(2,4,5-trifluoro-benzyl)oxy]-1H-pyrazol-3-yl}methanamine]
Ki [1, 3]: 5.5 nM
Ki [2]: 6.6 nM

CNCc1cc(OCc2ccccc2F)n(CCC(C)C)n1 [Example 381, 1-{5-[(2-fluorobenzyl)oxy]-1-(3-methylbutyl)-1H-pyrazol-3-yl}-N-methylmethanamine]
Ki [1, 3]: 3.4 nM
Ki [2]: 10 nM

CNCc1nn(CC2CCCCC2)c(OCc2cc(F)ccc2F)c1F.Cl [Example 351, 1-{1-(Cyclohexylmethyl)-5-[(2,5-difluorobenzyl)oxy]-4-fluoro-1H-pyrazol-3-yl}-N-methylmethanamine hydrochloride]
Ki [1]: 0.98 nM
Ki [2]: 43 nM

Fc1ccc(F)c(COc2cc(CNC3CC3)nn2CC2CCCCC2)c1 [Example 342, N-({1-(Cyclohexylmethyl)-5-[(2,5-difluorobenzyl)oxy]-1H-pyrazol-3-yl}methyl)cyclopropanamine]
Ki [1, 3]: 8.5 nM
Ki [2]: 14 nM

CNCc1cc(OCc2cc(Cl)ccc2F)n(CC2CCCC2)n1 [Example 148, 1-{5-[(5-chloro-2-fluorobenzyl)oxy]-1-(cyclopentylmethyl)-1H-pyrazol-3-yl}-N-methylmethanamine]
Ki [1, 3]: 4.6 nM
Ki [2]: 1.9 nM
